According to patent publication US10597388B2, “Pyridazinone herbicides” (FMC CORPORATION, priority 2014, dated 2020):

How the values were obtained:
Assay in all cases: Test E greenhouse herbicide test, pre- and postemergence
Type in all cases: in vivo
[1] = system: pigweed, palmer (palmer pigweed, Amaranthus palmeri)
Outline: (§1)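 Seedlings reaching 2–18 cm (1- to 4-leaf stage) received foliar treatment, while seeds in silt loam received a soil surface spray; the vehicle in each case was a non-phytotoxic solvent mixture including surfactant. Visual scoring versus controls followed 14–21 d later on a 0–100 scale.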

[2] = system: panicum, fall (fall panicum, Panicum dichotomiflorum)
Outline: as §1

[3] = system: surinam grass (Brachiaria decumbens); conditions: Preemergence
Outline: as §1

[4] = system: barnyardgrass (Echinochloa crus-galli)
Outline: as §1

[5] = system: momingglory (Ipomoea coccinea); conditions: Preemergence
Outline: as §1

[6] = system: nightshade (eastern black nightshade, Solanum ptycanthum); conditions: Preemergence
Outline: as §1

[7] = system: foxtail, giant (giant foxtail, Setaria faberii); conditions: Preemergence
Outline: as §1

[8] = system: crabgrass, Brazilian (Brazilian crabgrass, Digitaria horizontalis)
Outline: as §1

soybean (Glycine max) = system: soybean (Glycine max)
Outline: as §1

[9] = system: ragweed (common ragweed, Ambrosia elatior)
Outline: as §1

[10] = system: crabgrass, large (large crabgrass, Digitaria sanguinalis); conditions: Preemergence
Outline: as §1

[11] = system: horseweed (Conyza canadensis); conditions: Postemergence
Outline: as §1

[12] = system: johnsongrass (Sorghum halepense); conditions: Preemergence
Outline: as §1

[13] = system: arrowleaf sida (Sida rhombifolia)
Outline: as §1

[14] = system: goosegrass (Eleusine indica); conditions: Preemergence
Outline: as §1

[15] = system: field bindweed (Convolvulus arvensis)
Outline: as §1

[16] = 62 g ai/ha, Postemergence, scale 0 to 100 (0 no effect, 100 complete control)
[17] = 62 g ai/ha, Preemergence, scale 0 to 100 (0 no effect, 100 complete control)
[18] = 125 g ai/ha, Postemergence, scale 0 to 100 (0 no effect, 100 complete control)
[19] = 125 g ai/ha, Preemergence, scale 0 to 100 (0 no effect, 100 complete control)
[20] = 250 g ai/ha, Postemergence, scale 0 to 100 (0 no effect, 100 complete control)
[21] = Postemergence, 31 g ai/ha, visual, scale 0 no effect to 100 complete control
[22] = Preemergence, 31 g ai/ha, scale 0 to 100, 0 no effect, 100 complete control
[23] = Preemergence, 250 g ai/ha, visual, scale 0 no effect to 100 complete control
[24] = 62 g ai/ha, scale 0 to 100 (0 no effect, 100 complete control)
[25] = 125 g ai/ha, scale 0 to 100 (0 no effect, 100 complete control)
[26] = 31 g ai/ha, scale 0 to 100, 0 no effect, 100 complete control
[27] = 250 g ai/ha, visual, scale 0 no effect to 100 complete control
[28] = Preemergence, 125 g ai/ha, visual, scale 0 no effect to 100 complete control
[29] = 125 g ai/ha, visual, scale 0 no effect to 100 complete control

CCc1sc2c(C)cc(C)cc2c1-c1c(O)c(C)nn(C)c1=O [Compound 57]
Plant response rating, Pigweed, Palmer [1, 16]: 20 | Plant response rating, Pigweed, Palmer [1, 17]: 35 | Plant response rating, Pigweed, Palmer [1, 18]: 30 | Plant response rating, Pigweed, Palmer [1, 19]: 40 | Plant response rating, Pigweed, Palmer [1, 20]: 60 | Plant response rating, Pigweed, Palmer [1, 21]: 10 | Plant response rating, Pigweed, Palmer [1, 22]: 35 | Plant response rating, Pigweed, Palmer [1, 23]: 60 | Plant response rating, Panicum, Fall [2, 16]: 60 | Plant response rating, Panicum, Fall [2, 17]: 98 | Plant response rating, Panicum, Fall [2, 18]: 70 | Plant response rating, Panicum, Fall [2, 19]: 100 | Plant response rating, Panicum, Fall [2, 20]: 80 | Plant response rating, Panicum, Fall [2, 21]: 40 | Plant response rating, Panicum, Fall [2, 22]: 95 | Plant response rating, Panicum, Fall [2, 23]: 100 | Plant response rating, Surinam Grass [3, 24]: 70 | Plant response rating, Surinam Grass [3, 25]: 85 | Plant response rating, Surinam Grass [3, 26]: 5 | Plant response rating, Surinam Grass [3, 27]: 95 | Plant response rating, Barnyardgrass [4, 16]: 85 | Plant response rating, Barnyardgrass [4, 17]: 0 | Plant response rating, Barnyardgrass [4, 18]: 90 | Plant response rating, Barnyardgrass [4, 20]: 90 | Plant response rating, Barnyardgrass [4, 21]: 80 | Plant response rating, Barnyardgrass [4, 22]: 0 | Plant response rating, Barnyardgrass [4, 28]: 75 | Plant response rating, Barnyardgrass [4, 23]: 100 | Plant response rating, Morningglory [5, 24]: 40 | Plant response rating, Morningglory [5, 25]: 100 | Plant response rating, Morningglory [5, 26]: 85 | Plant response rating, Morningglory [5, 27]: 100 | Plant response rating, Nightshade [6, 24]: 98 | Plant response rating, Nightshade [6, 25]: 98 | Plant response rating, Nightshade [6, 26]: 90 | Plant response rating, Nightshade [6, 27]: 98 | Plant response rating, Foxtail, Giant [7, 24]: 35 | Plant response rating, Foxtail, Giant [7, 26]: 5 | Plant response rating, Foxtail, Giant [7, 29]: 95 | Plant response rating, Foxtail, Giant [7, 27]: 95 | Plant response rating, Crabgrass, Brazil [8, 16]: 20 | Plant response rating, Crabgrass, Brazil [8, 17]: 0 | Plant response rating, Crabgrass, Brazil [8, 18]: 20 | Plant response rating, Crabgrass, Brazil [8, 20]: 30 | Plant response rating, Crabgrass, Brazil [8, 21]: 15 | Plant response rating, Crabgrass, Brazil [8, 22]: 0 | Plant response rating, Crabgrass, Brazil [8, 28]: 40 | Plant response rating, Crabgrass, Brazil [8, 23]: 70 | Plant response rating, Soybean (soybean (Glycine max); [16]): 0 | Plant response rating, Soybean (soybean (Glycine max); [17]): 0 | Plant response rating, Soybean (soybean (Glycine max); [18]): 15 | Plant response rating, Soybean (soybean (Glycine max); [19]): 0 | Plant response rating, Soybean (soybean (Glycine max); [20]): 10 | Plant response rating, Soybean (soybean (Glycine max); [21]): 10 | Plant response rating, Soybean (soybean (Glycine max); [22]): 0 | Plant response rating, Soybean (soybean (Glycine max); [23]): 20 | Plant response rating, Ragweed [9, 16]: 60 | Plant response rating, Ragweed [9, 17]: 100 | Plant response rating, Ragweed [9, 18]: 95 | Plant response rating, Ragweed [9, 19]: 100 | Plant response rating, Ragweed [9, 20]: 95 | Plant response rating, Ragweed [9, 21]: 50 | Plant response rating, Ragweed [9, 22]: 90 | Plant response rating, Ragweed [9, 23]: 100 | Plant response rating, Crabgrass, Large [10, 24]: 0 | Plant response rating, Crabgrass, Large [10, 26]: 0 | Plant response rating, Crabgrass, Large [10, 29]: 0 | Plant response rating, Crabgrass, Large [10, 27]: 0 | Plant response rating, Horseweed [11, 24]: 75 | Plant response rating, Horseweed [11, 25]: 75 | Plant response rating, Horseweed ([11]; 250 g ai/ha, scale 0 to 100 (0 no effect, 100 complete control)): 80 | Plant response rating, Horseweed ([11]; 31 g ai/ha, visual, scale 0 no effect to 100 complete control): 60 | Plant response rating, Johnsongrass [12, 24]: 30 | Plant response rating, Johnsongrass [12, 26]: 0 | Plant response rating, Johnsongrass [12, 29]: 30 | Plant response rating, Johnsongrass [12, 27]: 35 | Plant response rating, Arrowleaf Sida [13, 16]: 20 | Plant response rating, Arrowleaf Sida [13, 17]: 0 | Plant response rating, Arrowleaf Sida [13, 18]: 40 | Plant response rating, Arrowleaf Sida [13, 20]: 45 | Plant response rating, Arrowleaf Sida [13, 21]: 10 | Plant response rating, Arrowleaf Sida [13, 22]: 0 | Plant response rating, Arrowleaf Sida [13, 28]: 50 | Plant response rating, Arrowleaf Sida [13, 23]: 40 | Plant response rating, Goosegrass [14, 24]: 0 | Plant response rating, Goosegrass [14, 26]: 10 | Plant response rating, Goosegrass [14, 29]: 5 | Plant response rating, Goosegrass [14, 27]: 5 | Plant response rating, Field Bindweed [15, 16]: 95 | Plant response rating, Field Bindweed [15, 17]: 95 | Plant response rating, Field Bindweed [15, 18]: 98 | Plant response rating, Field Bindweed [15, 20]: 95 | Plant response rating, Field Bindweed [15, 21]: 85 | Plant response rating, Field Bindweed [15, 22]: 70 | Plant response rating, Field Bindweed [15, 28]: 98 | Plant response rating, Field Bindweed [15, 23]: 100
